# The supplement of paper PMC11208160
# Assay: recombinant UMI read abundance after kanamycin selection (control-corrected) (log10(CPM+1)); higher = more efficient recombination; extreme values may be limits of the assay; sequences stand for … in AGTGCAGAGAAAATCGGCCAGTTTTCTCTGCCTGCAGTCCGCATGCCGTGGGACCCCTTGGGTTCTAACCTGTTGCCTAGATTTATGCAGCGGACTGCCTTTCTCCCAAAGTGATAAACCGG…AGGTTGGTTTCACT; site = the 11-nt donor
# In short: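 Two replicates each of selected and unselected plating were used in this pooled Escherichia coli screen of donor and donor-binding-loop pairs for the IS621 bridge recombinase. Selection was with IPTG (0.07 mM) and kanamycin. Counts of recombinant UMIs, amplified across the donor–target junction, were converted to CPM, averaged, scaled by control-derived factors and reported as log10(CPM+1).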
# 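Also: IS621 bridge recombinase in Escherichia coli cells against a fixed T5 target plasmid.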
row,Sequence,recombinant UMI read abundance (log10)
1,ATGTAGCCATGGACCGGTTTTCCCGGTAATCCGTATTTGGC (site ATGTAGCCTGC),0.669
2,ATGTAGCCATGGACCGGTTTTCCCGGTAATCCGTATTTGGC (site ATGTAGGCTGC),0
3,ATGTAGCCATGGACCGGTTTTCCCGGTAATCCGTATTTGGC (site ATGTAGTCTGC),1.33
4,ATGTAGGCATGGACCGGTTTTCCCGGTAATCCGTATTTGGC (site AAGTAGGCTGC),1.22
5,ATGTAGGCATGGACCGGTTTTCCCGGTAATCCGTATTTGGC (site ACGTAGGCTGC),1.74
6,ATGTAGGCATGGACCGGTTTTCCCGGTAATCCGTATTTGGC (site AGGTAGGCTGC),0.332
7,ATGTAGGCATGGACCGGTTTTCCCGGTAATCCGTATTTGGC (site ATATAGGCTGC),2.8
8,ATGTAGGCATGGACCGGTTTTCCCGGTAATCCGTATTTGGC (site ATCTAGGCTGC),0.844
9,ATGTAGGCATGGACCGGTTTTCCCGGTAATCCGTATTTGGC (site ATGAAGGCTGC),2.35
10,ATGTAGGCATGGACCGGTTTTCCCGGTAATCCGTATTTGGC (site ATGCAGGCTGC),2.19
11,ATGTAGGCATGGACCGGTTTTCCCGGTAATCCGTATTTGGC (site ATGGAGGCTGC),0
12,ATGTAGGCATGGACCGGTTTTCCCGGTAATCCGTATTTGGC (site ATGTAAGCTGC),2.28
13,ATGTAGGCATGGACCGGTTTTCCCGGTAATCCGTATTTGGC (site ATGTACGCTGC),0.834
14,ATGTAGGCATGGACCGGTTTTCCCGGTAATCCGTATTTGGC (site ATGTAGACTGC),2.34
15,ATGTAGGCATGGACCGGTTTTCCCGGTAATCCGTATTTGGC (site ATGTAGCCTGC),0.604
16,ATGTAGGCATGGACCGGTTTTCCCGGTAATCCGTATTTGGC (site ATGTAGGCTAC),1.17
17,ATGTAGGCATGGACCGGTTTTCCCGGTAATCCGTATTTGGC (site ATGTAGGCTCC),0.328
18,ATGTAGGCATGGACCGGTTTTCCCGGTAATCCGTATTTGGC (site ATGTAGGCTGA),2.15
19,ATGTAGGCATGGACCGGTTTTCCCGGTAATCCGTATTTGGC (site ATGTAGGCTGC),2.4
20,ATGTAGGCATGGACCGGTTTTCCCGGTAATCCGTATTTGGC (site ATGTAGGCTGG),2.41
21,ATGTAGGCATGGACCGGTTTTCCCGGTAATCCGTATTTGGC (site ATGTAGGCTGT),2.51
22,ATGTAGGCATGGACCGGTTTTCCCGGTAATCCGTATTTGGC (site ATGTAGGCTTC),1.15
23,ATGTAGGCATGGACCGGTTTTCCCGGTAATCCGTATTTGGC (site ATGTAGTCTGC),1.06

row,Sequence,recombinant UMI read abundance (log10)
1,ATGTAGGCATGGACCGGTTTTCCCGGTAATCCGTATTTGGC (site ATGTATGCTGC),0.657
2,ATGTAGGCATGGACCGGTTTTCCCGGTAATCCGTATTTGGC (site ATGTCGGCTGC),0.474
3,ATGTAGGCATGGACCGGTTTTCCCGGTAATCCGTATTTGGC (site ATGTGGGCTGC),0.618
4,ATGTAGGCATGGACCGGTTTTCCCGGTAATCCGTATTTGGC (site ATGTTGGCTGC),0.568
5,ATGTAGGCATGGACCGGTTTTCCCGGTAATCCGTATTTGGC (site ATTTAGGCTGC),0.516
6,ATGTAGGCATGGACCGGTTTTCCCGGTAATCCGTATTTGGC (site CTGTAGGCTGC),0.572
7,ATGTAGGCATGGACCGGTTTTCCCGGTAATCCGTATTTGGC (site GTGTAGGCTGC),0.716
8,ATGTAGGCATGGACCGGTTTTCCCGGTAATCCGTATTTGGC (site TTGTAGGCTGC),1.95
9,ATGTAGGCATGGACCGGTTTTCCCGGTAATCCGTATTTGGG (site ATGTAGGCTAC),0.251
10,ATGTAGGCATGGACCGGTTTTCCCGGTAATCCGTATTTGGG (site ATGTAGGCTCC),0.167
11,ATGTAGGCATGGACCGGTTTTCCCGGTAATCCGTATTTGGG (site ATGTAGGCTGC),0
12,ATGTAGGCATGGACCGGTTTTCCCGGTAATCCGTATTTGGG (site ATGTAGGCTTC),0.0205
13,ATGTAGGCATGGACCGGTTTTCCCGGTAATCCGTATTTGTC (site ATGTAGGCTGA),2.72
14,ATGTAGGCATGGACCGGTTTTCCCGGTAATCCGTATTTGTC (site ATGTAGGCTGC),1.62
15,ATGTAGGCATGGACCGGTTTTCCCGGTAATCCGTATTTGTC (site ATGTAGGCTGG),2.52
16,ATGTAGGCATGGACCGGTTTTCCCGGTAATCCGTATTTGTC (site ATGTAGGCTGT),1.91
17,ATGTATACATGGACCGGTTTTCCCGGTAATCCGTATTTGCA (site ATGTATACTTG),2.39
18,ATGTCGACATGGACCGGTTTTCCCGGTAATCCGTATTTGCG (site ATGTCGACTCG),0.954
19,ATGTCGGCATGGACCGGTTTTCCCGGTAATCCGTATTTGGC (site ATGTAGGCTGC),0.445
20,ATGTCGGCATGGACCGGTTTTCCCGGTAATCCGTATTTGGC (site ATGTCGGCTGC),2.2
21,ATGTCGGCATGGACCGGTTTTCCCGGTAATCCGTATTTGGC (site ATGTGGGCTGC),0
22,ATGTCGGCATGGACCGGTTTTCCCGGTAATCCGTATTTGGC (site ATGTTGGCTGC),0.0547
23,ATGTTCACATGGACCGGTTTTCCCGGTAATCCGTATTTGGT (site ATGTTCACTAC),1.66

row,Sequence,recombinant UMI read abundance (log10)
1,ATGTTTGCATGGACCGGTTTTCCCGGTAATCCGTATTTGCG (site ATGTTTGCTCG),1.95
2,ATGTTTGCATGGACCGGTTTTCCCGGTAATCCGTATTTGCT (site ATGTTTGCTAG),1.94
3,ATTCCCTCATGGACCGGTTTTCCCGGTAATCCGTATTTGAC (site ATTCCCTCTGT),3.23
4,ATTCCTACATGGACCGGTTTTCCCGGTAATCCGTATTTGAC (site ATTCCTACTGT),0.882
5,ATTCGAGCATGGACCGGTTTTCCCGGTAATCCGTATTTGCA (site ATTCGAGCTTG),1.49
6,ATTCGAGCATGGACCGGTTTTCCCGGTAATCCGTATTTGCA (site CTTCGAGCTTG),1.44
7,ATTCGAGCATGGACCGGTTTTCCCGGTAATCCGTATTTGCA (site GTTCGAGCTTG),0.663
8,ATTCGAGCATGGACCGGTTTTCCCGGTAATCCGTATTTGCA (site TTTCGAGCTTG),0.947
9,ATTCGCCCATGGACCGGTTTTCCCGGTAATCCGTATTTGAA (site ATTCGCCCTTT),0.156
10,ATTCGCTCATGGACCGGTTTTCCCGGTAATCCGTATTTGAA (site ATTCGCTCTTT),0.571
11,ATTCTCTCATGGACCGGTTTTCCCGGTAATCCGTATTTGTA (site ATTCTCTCTTA),2.35
12,ATTCTCTCATGGACCGGTTTTCCCGGTAATCCGTATTTGTA (site CTTCTCTCTTA),2.42
13,ATTCTCTCATGGACCGGTTTTCCCGGTAATCCGTATTTGTA (site GTTCTCTCTTA),1.52
14,ATTCTCTCATGGACCGGTTTTCCCGGTAATCCGTATTTGTA (site TTTCTCTCTTA),1.58
15,ATTCTTACATGGACCGGTTTTCCCGGTAATCCGTATTTGAG (site ATTCTTACTCT),0.0416
16,ATTGAAACATGGACCGGTTTTCCCGGTAATCCGTATTTGGC (site ATTGAAACTGC),2.15
17,ATTGAAGCATGGACCGGTTTTCCCGGTAATCCGTATTTGCA (site ATTGAAGCTTG),2.44
18,ATTGACACATGGACCGGTTTTCCCGGTAATCCGTATTTGAC (site ATTGACACTGT),2.61
19,ATTGAGACATGGACCGGTTTTCCCGGTAATCCGTATTTGAT (site ATTGAGACTAA),0.37
20,ATTGAGACATGGACCGGTTTTCCCGGTAATCCGTATTTGAT (site ATTGAGACTAC),0.217
21,ATTGAGACATGGACCGGTTTTCCCGGTAATCCGTATTTGAT (site ATTGAGACTAG),0.528
22,ATTGAGACATGGACCGGTTTTCCCGGTAATCCGTATTTGAT (site ATTGAGACTAT),2.01
